In patent publication US20210002723A1, “METHODS FOR ASSESSING RESPONSIVENESS TO ASTHMA TREATMENT BASED ON VNN-1 EXPRESSION AND PROMOTER METHYLATION” (Children's Hospital Medical Center, priority 2014, published 2021):

Key:
WT mice = experiment: Experimental asthma model (repeated HDM exposure), response to dexamethasone in wild-type mice; assay type: in vivo, mouse (BALB/c); conditions: dexamethasone 3 mg/kg i.p. last 5 days, mean ± SEM vs HDM-treated group
Experimental: (§1) The VNN1^−/− mice used in this study were described in Pitari et al., FEBS letters 2000; 483:149-54. Age- and sex-matched wild-type BALB/c mice were purchased from Harlan Laboratories (Indianapolis, Ind.). All mice were housed in a specific pathogen-free environment following routine practice.
(§2) Mice were exposed to intranasal doses of HDM (20 ug in 50 ul saline) or saline (0.9% NaCl, 50 ul; control group) 3 times a week for 3 weeks as previously described 18. Mice were treated with intra-peritoneal dexamethasone (3 mg/kg in dimethyl sulfoxide, (DMSO)) or DMSO (100 ul) for the last 5 days of the 3 week model. Airway hyperresponsiveness (AHR) was assessed 24 hours after the last HDM challenge using a flexiVent system (SCIREQ, Montreal, QC, Canada) as previously described. See, e.g., Brandt et al., J Allergy Clin Immunol., 2013; 132:1194-204 e2. Bronchoalveolar lavage fluid (BALF) was collected, processed, and inflammatory cells were quantified analyzed as previously described. See Brandt et al., 2013.
(§3) For the experimental asthma model results, individual AHR, total BALF cell counts and eosinophil percentage in mice treated with HDM plus dexamethasone were compared to and normalized by the corresponding mean value in the HDM-treated group. The data are presented as means±SEM. Difference between the WT and VNN1^−/− group was tested by non-parametric Mann Whitney test. A p-value<0.05 was considered significant. Percentage reduction was used to present the steroid response results.

VNN1−/− mice = experiment: Experimental asthma model (repeated HDM exposure), response to dexamethasone in VNN1−/− mice; assay type: in vivo, mouse; conditions: dexamethasone 3 mg/kg i.p. last 5 days, mean ± SEM vs HDM-treated group
Experimental: as §1, §2, §3

In the case of `C[C@@H]1C[C@H]2[C@@H]3CCC4=CC(=O)C=C[C@]4(C)[C@@]3(F)[C@@H](O)C[C@]2(C)[C@@]1(O)C(=O)CO` [Dexamethasone, dexamethasone], the “average percentage reduction of AHR” value (WT mice; 50 mg/ml methacholine challenge) is reported as 78.1%, the “average percentage reduction of AHR” value (WT mice; 100 mg/ml methacholine challenge) is reported as 80.2% and the “reduction in eosinophils (BALF)” value (WT mice) is reported as 83.6±3.7%. For the same compound, the “reduction in total BALF cells” value (WT mice) was 70.0±4.3%, the “average percentage reduction of AHR” value (VNN1−/− mice; 50 mg/ml methacholine) was 55.2±4.9% and the “average percentage reduction of AHR” value (VNN1−/− mice; 100 mg/ml methacholine) was 53.3%. For the same compound, the “reduction in eosinophils (BALF)” value (VNN1−/− mice) was 36.1% and the “reduction in total BALF cells” value (VNN1−/− mice) was 40.9%.
